Data taken from ChEMBL document CHEMBL3991601, “The target landscape of clinical kinase drugs” (Science, 2017).
Activity calls are given as the source filed them.

What was measured:
[1] = target: Calcium/calmodulin-dependent protein kinase type II subunit gamma (Homo sapiens, UniProt Q13555)
[2] = target: Structural maintenance of chromosomes protein 2 (Homo sapiens, UniProt O95347)
[3] = target: Serine/threonine-protein kinase MRCK beta (Homo sapiens, UniProt Q9Y5S2)
[4] = target: T1, RNA cytidine acetyltransferase (Homo sapiens, UniProt Q9H0A0)
T1 sequence (Q9H0A0 whole entry): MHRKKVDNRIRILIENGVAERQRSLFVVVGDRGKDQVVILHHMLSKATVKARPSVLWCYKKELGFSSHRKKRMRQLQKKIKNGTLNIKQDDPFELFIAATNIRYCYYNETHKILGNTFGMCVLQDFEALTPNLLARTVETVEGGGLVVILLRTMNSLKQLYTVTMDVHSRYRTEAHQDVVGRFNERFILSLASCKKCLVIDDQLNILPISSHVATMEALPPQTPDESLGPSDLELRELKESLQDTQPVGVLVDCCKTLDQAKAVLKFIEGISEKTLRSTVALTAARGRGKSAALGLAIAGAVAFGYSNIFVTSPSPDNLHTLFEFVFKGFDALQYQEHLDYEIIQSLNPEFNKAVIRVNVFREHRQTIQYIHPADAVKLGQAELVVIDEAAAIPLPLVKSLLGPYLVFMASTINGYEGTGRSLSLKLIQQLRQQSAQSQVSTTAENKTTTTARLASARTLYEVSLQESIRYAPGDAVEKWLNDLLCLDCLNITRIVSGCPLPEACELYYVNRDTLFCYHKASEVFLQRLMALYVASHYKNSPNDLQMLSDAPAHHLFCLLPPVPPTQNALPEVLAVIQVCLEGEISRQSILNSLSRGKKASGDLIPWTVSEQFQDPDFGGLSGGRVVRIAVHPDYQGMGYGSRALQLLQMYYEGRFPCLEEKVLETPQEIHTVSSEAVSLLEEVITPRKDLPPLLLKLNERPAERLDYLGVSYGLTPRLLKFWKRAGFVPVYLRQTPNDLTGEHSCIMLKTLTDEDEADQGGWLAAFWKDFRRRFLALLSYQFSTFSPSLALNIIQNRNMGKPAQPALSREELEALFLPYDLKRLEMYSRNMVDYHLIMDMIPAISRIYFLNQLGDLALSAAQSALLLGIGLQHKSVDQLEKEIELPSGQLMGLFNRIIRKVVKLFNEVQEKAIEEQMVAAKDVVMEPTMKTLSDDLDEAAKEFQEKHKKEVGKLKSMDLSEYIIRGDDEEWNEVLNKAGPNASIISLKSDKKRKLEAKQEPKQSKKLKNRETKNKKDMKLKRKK

[5] = target: Serine/threonine-protein kinase PAK 4 (Homo sapiens, UniProt O96013)
Sequence of Serine/threonine-protein kinase PAK 4 (O96013 whole entry): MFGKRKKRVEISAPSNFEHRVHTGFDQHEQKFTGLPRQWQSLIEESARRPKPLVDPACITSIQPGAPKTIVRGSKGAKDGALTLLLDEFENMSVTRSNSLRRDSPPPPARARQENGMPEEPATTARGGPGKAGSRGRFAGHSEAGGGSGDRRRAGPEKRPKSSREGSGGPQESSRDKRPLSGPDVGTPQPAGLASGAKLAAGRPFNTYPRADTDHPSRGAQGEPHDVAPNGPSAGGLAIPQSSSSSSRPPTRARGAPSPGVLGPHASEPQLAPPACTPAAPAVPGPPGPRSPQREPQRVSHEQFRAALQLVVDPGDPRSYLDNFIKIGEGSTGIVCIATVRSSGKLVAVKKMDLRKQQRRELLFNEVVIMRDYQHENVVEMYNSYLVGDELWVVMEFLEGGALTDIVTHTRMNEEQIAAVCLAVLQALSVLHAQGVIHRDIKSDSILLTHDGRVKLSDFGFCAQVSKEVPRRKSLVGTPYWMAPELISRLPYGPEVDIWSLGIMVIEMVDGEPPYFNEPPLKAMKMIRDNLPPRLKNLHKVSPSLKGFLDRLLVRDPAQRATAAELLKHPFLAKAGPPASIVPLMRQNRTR

Ephrin type-B receptor 6 = target: T2, Ephrin type-B receptor 6 (Homo sapiens, UniProt O15197)
T2 sequence (O15197 whole entry): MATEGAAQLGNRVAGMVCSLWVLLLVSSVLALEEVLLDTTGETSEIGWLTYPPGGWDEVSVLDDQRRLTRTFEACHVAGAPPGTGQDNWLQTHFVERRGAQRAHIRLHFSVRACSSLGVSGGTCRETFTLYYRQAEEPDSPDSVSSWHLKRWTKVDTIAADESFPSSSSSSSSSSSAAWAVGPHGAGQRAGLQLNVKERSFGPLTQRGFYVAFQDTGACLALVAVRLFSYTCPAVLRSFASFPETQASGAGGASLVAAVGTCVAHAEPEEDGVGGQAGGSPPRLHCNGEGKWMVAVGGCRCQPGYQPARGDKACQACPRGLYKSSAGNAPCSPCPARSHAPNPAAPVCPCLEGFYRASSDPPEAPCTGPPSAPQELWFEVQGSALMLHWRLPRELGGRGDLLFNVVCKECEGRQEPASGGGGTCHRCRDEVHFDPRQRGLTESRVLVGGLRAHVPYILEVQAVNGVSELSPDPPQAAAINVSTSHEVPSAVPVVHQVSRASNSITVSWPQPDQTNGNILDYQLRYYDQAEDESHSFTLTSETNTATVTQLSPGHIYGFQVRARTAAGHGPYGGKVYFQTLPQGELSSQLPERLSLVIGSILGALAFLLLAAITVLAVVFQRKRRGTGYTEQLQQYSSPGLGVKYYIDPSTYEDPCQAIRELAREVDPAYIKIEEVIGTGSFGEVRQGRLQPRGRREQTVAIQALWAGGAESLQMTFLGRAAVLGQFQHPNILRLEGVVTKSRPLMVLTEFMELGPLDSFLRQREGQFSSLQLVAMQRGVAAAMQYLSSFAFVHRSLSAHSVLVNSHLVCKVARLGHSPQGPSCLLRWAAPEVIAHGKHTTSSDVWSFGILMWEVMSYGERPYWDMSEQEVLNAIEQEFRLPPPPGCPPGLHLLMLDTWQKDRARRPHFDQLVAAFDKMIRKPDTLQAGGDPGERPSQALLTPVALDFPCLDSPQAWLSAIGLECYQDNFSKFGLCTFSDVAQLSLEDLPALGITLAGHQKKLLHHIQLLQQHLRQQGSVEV
Further: in the data inactive means no Kd found up to 30 µM.

Sequence of Serine/threonine-protein kinase MRCK beta (Q9Y5S2 whole entry): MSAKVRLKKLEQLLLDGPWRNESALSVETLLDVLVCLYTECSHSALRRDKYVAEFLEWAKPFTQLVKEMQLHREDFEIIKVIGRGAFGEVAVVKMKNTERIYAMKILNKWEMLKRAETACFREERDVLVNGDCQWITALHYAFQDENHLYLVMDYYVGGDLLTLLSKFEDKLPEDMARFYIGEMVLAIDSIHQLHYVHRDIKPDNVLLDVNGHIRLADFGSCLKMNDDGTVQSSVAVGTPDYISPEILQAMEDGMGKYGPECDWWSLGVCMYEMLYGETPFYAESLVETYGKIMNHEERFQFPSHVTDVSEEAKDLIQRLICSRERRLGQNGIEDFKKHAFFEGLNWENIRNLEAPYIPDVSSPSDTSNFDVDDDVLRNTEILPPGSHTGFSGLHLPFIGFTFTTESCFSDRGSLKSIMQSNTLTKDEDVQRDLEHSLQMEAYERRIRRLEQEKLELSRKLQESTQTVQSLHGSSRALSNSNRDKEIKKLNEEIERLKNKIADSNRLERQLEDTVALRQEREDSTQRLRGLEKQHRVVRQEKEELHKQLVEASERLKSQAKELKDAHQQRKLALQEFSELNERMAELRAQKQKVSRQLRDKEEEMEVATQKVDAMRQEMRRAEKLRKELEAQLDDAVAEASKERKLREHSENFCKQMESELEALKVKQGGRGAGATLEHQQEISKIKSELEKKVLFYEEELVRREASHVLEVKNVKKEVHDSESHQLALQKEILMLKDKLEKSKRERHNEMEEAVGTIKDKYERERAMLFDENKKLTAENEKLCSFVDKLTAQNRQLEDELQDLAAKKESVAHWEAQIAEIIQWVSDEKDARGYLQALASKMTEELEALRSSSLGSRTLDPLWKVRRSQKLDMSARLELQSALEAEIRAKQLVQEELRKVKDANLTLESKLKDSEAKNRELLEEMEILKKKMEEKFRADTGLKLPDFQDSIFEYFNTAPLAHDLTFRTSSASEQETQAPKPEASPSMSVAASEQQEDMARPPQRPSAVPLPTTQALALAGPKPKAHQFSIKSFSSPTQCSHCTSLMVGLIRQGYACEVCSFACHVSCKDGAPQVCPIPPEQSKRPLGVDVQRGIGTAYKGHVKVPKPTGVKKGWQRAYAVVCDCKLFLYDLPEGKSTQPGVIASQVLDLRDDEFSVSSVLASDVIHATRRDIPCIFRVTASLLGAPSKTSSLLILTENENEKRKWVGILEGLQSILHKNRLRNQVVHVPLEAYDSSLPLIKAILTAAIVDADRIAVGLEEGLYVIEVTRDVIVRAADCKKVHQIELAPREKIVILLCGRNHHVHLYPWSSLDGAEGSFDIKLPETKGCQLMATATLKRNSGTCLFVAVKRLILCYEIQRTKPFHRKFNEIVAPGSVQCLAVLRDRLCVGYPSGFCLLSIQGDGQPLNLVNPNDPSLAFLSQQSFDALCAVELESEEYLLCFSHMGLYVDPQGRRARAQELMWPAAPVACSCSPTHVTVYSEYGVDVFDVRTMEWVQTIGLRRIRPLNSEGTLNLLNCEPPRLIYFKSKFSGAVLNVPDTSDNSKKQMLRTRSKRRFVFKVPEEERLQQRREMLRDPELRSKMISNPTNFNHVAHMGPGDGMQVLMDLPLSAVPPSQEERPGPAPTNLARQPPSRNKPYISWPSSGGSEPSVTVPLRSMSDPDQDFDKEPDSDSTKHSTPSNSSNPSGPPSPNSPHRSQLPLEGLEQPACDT
Sequence of Calcium/calmodulin-dependent protein kinase type II subunit gamma (Q13555 whole entry): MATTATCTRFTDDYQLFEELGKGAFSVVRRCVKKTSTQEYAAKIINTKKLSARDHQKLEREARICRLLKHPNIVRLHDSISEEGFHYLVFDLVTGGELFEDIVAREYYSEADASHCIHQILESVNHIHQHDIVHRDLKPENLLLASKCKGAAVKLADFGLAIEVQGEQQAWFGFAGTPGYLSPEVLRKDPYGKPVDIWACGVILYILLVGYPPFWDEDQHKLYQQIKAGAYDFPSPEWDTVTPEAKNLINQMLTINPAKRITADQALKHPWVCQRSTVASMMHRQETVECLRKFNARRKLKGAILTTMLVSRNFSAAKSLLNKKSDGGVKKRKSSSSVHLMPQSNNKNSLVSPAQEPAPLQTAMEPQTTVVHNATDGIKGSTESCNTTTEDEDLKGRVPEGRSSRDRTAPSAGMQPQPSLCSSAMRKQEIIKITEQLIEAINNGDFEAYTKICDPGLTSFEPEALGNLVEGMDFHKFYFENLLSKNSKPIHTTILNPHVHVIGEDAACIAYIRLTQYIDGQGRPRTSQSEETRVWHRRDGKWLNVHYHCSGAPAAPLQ
Sequence of Structural maintenance of chromosomes protein 2 (O95347 whole entry): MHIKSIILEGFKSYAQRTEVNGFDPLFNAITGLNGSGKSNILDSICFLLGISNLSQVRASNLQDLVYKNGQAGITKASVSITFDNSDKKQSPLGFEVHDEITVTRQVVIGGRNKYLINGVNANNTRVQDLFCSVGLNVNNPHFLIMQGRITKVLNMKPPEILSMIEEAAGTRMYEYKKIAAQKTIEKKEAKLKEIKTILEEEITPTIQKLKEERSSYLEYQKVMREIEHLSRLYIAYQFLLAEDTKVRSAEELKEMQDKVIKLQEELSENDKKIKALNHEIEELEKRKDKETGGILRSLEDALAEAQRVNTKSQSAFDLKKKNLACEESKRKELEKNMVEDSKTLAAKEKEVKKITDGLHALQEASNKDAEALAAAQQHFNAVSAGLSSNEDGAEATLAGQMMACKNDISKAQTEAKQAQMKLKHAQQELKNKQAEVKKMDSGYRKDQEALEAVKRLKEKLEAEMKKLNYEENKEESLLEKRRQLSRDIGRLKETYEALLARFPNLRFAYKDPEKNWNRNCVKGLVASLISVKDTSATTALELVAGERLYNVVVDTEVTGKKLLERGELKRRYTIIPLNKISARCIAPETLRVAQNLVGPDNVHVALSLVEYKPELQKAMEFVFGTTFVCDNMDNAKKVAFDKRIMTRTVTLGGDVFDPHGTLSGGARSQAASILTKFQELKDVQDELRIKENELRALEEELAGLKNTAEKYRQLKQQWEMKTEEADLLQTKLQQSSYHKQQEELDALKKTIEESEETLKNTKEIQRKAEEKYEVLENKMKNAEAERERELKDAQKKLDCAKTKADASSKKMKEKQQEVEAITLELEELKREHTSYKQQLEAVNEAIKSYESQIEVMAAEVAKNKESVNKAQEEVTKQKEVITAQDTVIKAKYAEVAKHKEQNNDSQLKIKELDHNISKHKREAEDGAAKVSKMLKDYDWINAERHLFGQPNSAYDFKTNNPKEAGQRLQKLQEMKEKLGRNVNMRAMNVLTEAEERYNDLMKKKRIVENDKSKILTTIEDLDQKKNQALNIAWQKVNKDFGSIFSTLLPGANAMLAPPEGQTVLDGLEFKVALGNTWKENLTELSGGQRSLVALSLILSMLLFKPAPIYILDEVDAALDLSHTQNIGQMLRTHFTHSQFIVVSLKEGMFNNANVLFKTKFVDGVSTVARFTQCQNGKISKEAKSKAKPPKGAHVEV

Compound | Kd [1] | Kd [2] | Kd [3] | Kd [4] | Kd [5] | Kd (Ephrin type-B receptor 6)
Cc1csc(-c2nnc(Nc3ccc(Oc4ncccc4-c4ccnc(N)n4)cc3)c3ccccc23)c1 [AMG-900] | > 30 µM (inactive) | > 30 µM (inactive) | > 30 µM (inactive) | > 30 µM (inactive) | > 30 µM (inactive) | > 30 µM (inactive)
COCc1c(-c2ccc(NC(=O)Nc3cc(C(F)(F)F)ccc3F)c(F)c2)c2c(N)ncnn2c1CN1CCOCC1 | > 30 µM (inactive) | > 30 µM (inactive) | > 30 µM (inactive) | > 30 µM (inactive) | > 30 µM (inactive) | > 30 µM (inactive)
Nc1ncnc2c1c(-c1cccc(OCc3ccccc3)c1)cn2[C@H]1C[C@@H](CN2CCC2)C1 [AEW-541] | > 30 µM (inactive) | > 30 µM (inactive) | > 30 µM (inactive) | > 30 µM (inactive) | > 30 µM (inactive) | > 30 µM (inactive)
CN1CCN(CCOc2cc(OC3CCOCC3)c3c(Nc4c(Cl)ccc5c4OCO5)ncnc3c2)CC1 [SARACATINIB] | > 30 µM (inactive) | > 30 µM (inactive) | > 30 µM (inactive) | > 30 µM (inactive) | > 30 µM (inactive) | 3.6 µM (active)
CNC(=O)c1cc(Oc2ccc(NC(=O)Nc3cc(C(C)(C)C)nn3-c3ccc4ncccc4c3)c(F)c2)ccn1 [REBASTINIB] | > 30 µM (inactive) | > 30 µM (inactive) | > 30 µM (inactive) | > 30 µM (inactive) | > 30 µM (inactive) | > 30 µM (inactive)
C=CC(=O)N1CCC[C@H](n2c(=O)n(-c3ccc(Oc4ccccc4)cc3)c3c(N)ncnc32)C1 | > 30 µM (inactive) | > 30 µM (inactive) | > 30 µM (inactive) | > 30 µM (inactive) | > 30 µM (inactive) | > 30 µM (inactive)
COc1ccc(S(=O)(=O)N(C(C)=O)c2ccccc2/C=C/c2cc[n+]([O-])cc2)cc1 [HMN-214] | > 30 µM (inactive) | > 30 µM (inactive) | > 30 µM (inactive) | > 30 µM (inactive) | > 30 µM (inactive) | > 30 µM (inactive)
COc1cc2c(Nc3ccc(Cl)c(Cl)c3F)ncnc2cc1OC[C@@H]1C[C@@H]2CN(C)C[C@@H]2C1 [TESEVATINIB] | > 30 µM (inactive) | > 30 µM (inactive) | > 30 µM (inactive) | > 30 µM (inactive) | > 30 µM (inactive) | 0.259 µM
CO[C@H]1C[C@@H]2CC[C@@H](C)[C@@](O)(O2)C(=O)C(=O)N2CCCC[C@H]2C(=O)O[C@H]([C@H](C)C[C@@H]2CC[C@@H](OC(=O)C(C)(CO)CO)[C@H](OC)C2)CC(=O)[C@H](C)/C=C(\C)[C@@H](O)[C@@H](OC)C(=O)[C@H](C)C[C@H](C)/C=C/C=C/C=C/1C [TEMSIROLIMUS] | > 30 µM (inactive) | > 30 µM (inactive) | > 30 µM (inactive) | > 30 µM (inactive) | > 30 µM (inactive) | > 30 µM (inactive)
Cn1cnc2c(F)c(Nc3ccc(Br)cc3F)c(C(=O)NOCCO)cc21 [BINIMETINIB] | > 30 µM (inactive) | > 30 µM (inactive) | > 30 µM (inactive) | > 30 µM (inactive) | > 30 µM (inactive) | > 30 µM (inactive)
CCOc1cc2ncc(C#N)c(Nc3ccc(F)c(Cl)c3)c2cc1NC(=O)/C=C/CN(C)C [PELITINIB] | > 30 µM (inactive) | > 30 µM (inactive) | > 30 µM (inactive) | > 30 µM (inactive) | > 30 µM (inactive) | > 30 µM (inactive)
COc1c(OCCCN2CCOCC2)ccc2c1N=C(NC(=O)c1cnc(N)nc1)N1CCN=C21 [COPANLISIB] | > 30 µM (inactive) | > 30 µM (inactive) | > 30 µM (inactive) | > 30 µM (inactive) | > 30 µM (inactive) | > 30 µM (inactive)
O=c1[nH]ccc2cc(OC3CCNCC3)ccc12 [SAR-407899 FREE BASE] | > 30 µM (inactive) | > 30 µM (inactive) | 0.016 µM (active) | > 30 µM (inactive) | > 30 µM (inactive) | > 30 µM (inactive)
CNC(=O)c1cccc2cc(Oc3ccnc4cc(OCC5(N)CC5)c(OC)cc34)ccc12 [LUCITANIB] | > 30 µM (inactive) | > 30 µM (inactive) | > 30 µM (inactive) | > 30 µM (inactive) | > 30 µM (inactive) | > 30 µM (inactive)
C=CC(=O)Nc1cc2c(Nc3ccc(F)c(Cl)c3)ncnc2cc1C#CC(C)(C)N1CCN(C)CC1 [AV-412 FREE BASE] | > 30 µM (inactive) | > 30 µM (inactive) | > 30 µM (inactive) | > 30 µM (inactive) | > 30 µM (inactive) | > 30 µM (inactive)
C[C@@H](NC(=O)c1ncnc(N)c1Cl)c1ncc(C(=O)Nc2cc(C(F)(F)F)c(Cl)cn2)s1 [TOVORAFENIB] | > 30 µM (inactive) | > 30 µM (inactive) | > 30 µM (inactive) | > 30 µM (inactive) | > 30 µM (inactive) | 3.34 µM (active)
Cn1cc(-c2cnn3c(N)c(Br)c([C@@H]4CCCNC4)nc23)cn1 [SCH-900776] | > 30 µM (inactive) | > 30 µM (inactive) | > 30 µM (inactive) | > 30 µM (inactive) | 2.9 µM | > 30 µM (inactive)
CCn1c(C(=O)N(C2CC2)C2CC2)cc2c3c(ncn3C)c(Nc3cc(C)n(C)n3)nc21 [BMS-911543] | > 30 µM (inactive) | > 30 µM (inactive) | > 30 µM (inactive) | > 30 µM (inactive) | > 30 µM (inactive) | > 30 µM (inactive)
FC(F)(F)c1ccc(/C=C/c2nc(COc3ccc(CCCCn4ccnn4)cc3)co2)cc1 [MUBRITINIB] | > 30 µM (inactive) | > 30 µM (inactive) | > 30 µM (inactive) | > 30 µM (inactive) | > 30 µM (inactive) | > 30 µM (inactive)
